Data on two molecules can be found in article PMC12036875, “Mitochondria-targeting natural product rhein conjugated with dichloroacetate as the dual inhibitor of glycolysis and oxidative phosphorylation to off energize cancer cells and induce ROS storm” (Theranostics, 2025).

Series [1] deals with 4T1 cells. The experiment in a line: Cell apoptosis assay (Annexin V-Alexa Fluor 647/PI flow cytometry). Conditions: 6.25 μM, 24 h. Type of series: cell-based, Mouse. How it is done: Correspondingly, the fall of intracellular ATP amount and the release of Cyt C directly drove cells into apoptosis. Flow cytometry apoptosis assay was conducted on the 4T1 cells after culture with different drugs at 6.25 μM for 24 h. The treated cells were stained with Annexin V-Alexa Flour 647 and PI. […] Since the antitumor effect could only be achieved when DCA was used in high dose, it is in agreement with reported literature. Similar to rhein group, the apoptosis rate in R + D group increased to approximately 12%.
Annexin V/PI staining was used to analyze the apoptosis of cancer cells. 4T1 cells were seeded into 6-well plates at a density of 10 × 10^4 cells per well. The cells were permitted to resume exponential growth for 24 h and treated with various drugs. After another 24 h incubation, the supernatant was collected in 1.5 mL tubes. The cells were treated with 100 μL of 0.25% Trypsin-EDTA for 2 min, subsequently 300 μL fresh medium were added which was combined with the corresponding supernatant. The cells were obtained following centrifugation at 434 G for 5 min and washed twice with PBS, and then resuspended in 500 μL of binding buffer (1 ×). The cells were stained with Annexin V/Alexa Fluor 647 and PI (20 μg/mL) for 5 min at room temperature in the dark. The fluorescence signal was immediately detected by flow cytometry and the data were analyzed by FlowJo software.
(In general: In flow cytometry, cells or beads pass a laser one at a time.)

Series [2] relates to 4T1 cells. In words: Intracellular and extracellular lactate determination. Conditions: 6.25 μM, 24 h. It counts as cell-based, Mouse. How it is done: Next, the end product of glycolysis, lactate, was analyzed in 4T1 cells to further confirm the efficacy of the Rhein-DCA conjugate in blocking glycolytic metabolism. […] Lactate will be released from cells and condense in the TME due to the sustained aerobic glycolysis. To determine whether the decline in intracellular lactate level was caused by an increased extracellular secretion or a disconnect in glycolysis pathway, we further detected the lactate content in the culture medium (Figure 2E). The changes in extracellular lactate level were consistent with those observed intracellularly across the tested groups.
4T1 cells were seeded into 6-well plates at a density of 10 × 10^4 cells per well and cultured for 24 h. Cells were exposed to PBS, rhein, DCA, R + D and Rhein-DCA conjugate at a concentration of 6.25 μM for 24 h. (1) Medium: The medium from different groups was subjected to centrifugation at 9391 G for 10 min, 100 μL of supernatant was obtained, and 1 mL of extraction solution I was added. (2) Cells: After being washed twice with PBS, cells were harvested and suspended in extraction solution I (1 mL) for further lysis with sonication in ice bath (power 300 W, the duration of sonication is 3 s, the interval duration of 7 s, total sonication time of 3 min). […] Finally, the absorption value of each sample was detected with microplate reader at 570 nm.

Series [3] can be described thus: Stability in simulated gastrointestinal environment (HPLC). Type of series: physicochemical. To be noted: 37°C, within 2 h. How it is done: The proven oral administration experiences of rhein and DCA validated the feasibility and potential of our research on the oral administration of their derivative, Rhein-DCA [34], [35]. We first evaluated the stability of Rhein-DCA by simulating gastric acid (pH 1.5) and intestinal (pH 6.8) conditions in vitro with HPLC. The stability of the Rhein-DCA was as high as 85% within 2 h, indicating the stable of Rhein-DCA in gastrointestinal environment, and it was capable of being efficiently absorbed via the gastrointestinal tract (Figure S21).
Prepare phosphate buffer solutions at pH 1.5 (gastric simulation) and pH 6.8 (intestinal simulation). Rhein-DCA was added to the buffer and incubated at 37°C. Samples were collected at 0, 2, 4, and 6 h for HPLC analysis. Calculate stability (%) = (Ct / C0) × 100, where Ct and C0 are concentrations at time t h and 0 h, respectively.

Series [4] can be described thus: Pharmacokinetic study after oral administration. To be noted: SD rats, I.G. 20 mg/kg, mean ± S.D., n = 3. Type of series: in vivo, Sprague-Dawley (SD) rats. On the procedure: HPLC was conducted to evaluate the absorption and distribution of Rhein-DCA conjugate in […] after oral administration. Rhein-DCA was orally administered to Sprague-Dawley (SD) rats at 20 mg/kg, and the concentration of the drug in the blood samples was serially measured at predefined time points.
HPLC was used to evaluate the absorption and distribution of Rhein-DCA in […] after oral administration. Rhein-DCA was orally administered to Sprague-Dawley (SD) rats at 20 mg/kg. and the blood samples were serially collected at predefined time points (0.5, 1.5, 2, 3, 4, 5, 6, 8, 10 and 24 h). Centrifuge the blood at 3000 G for 10 min to separate serum, and the serum was mixed with methanol (1:3, v/v), vortexed for 3 min, and centrifuged at 13000 G for 10 min. The supernatant was filtered through a 0.22 µm membrane for HPLC assay. Pharmacokinetic parameters were derived using DAS 2.0 software with non-compartmental analysis (NCA).

As for `O=C(O)C(Cl)Cl` [DCA, Dichloroacetate], the “apoptosis in comparison with control group, in words” value in the series on 4T1 cells [1] was “no obvious changes”.
Turning to `O=C(OCCOC(=O)C(Cl)Cl)c1cc(O)c2c(c1)C(=O)c1cccc(O)c1C2=O` [Rhein-DCA], in the series on 4T1 cells [2], the intracellular lactate content result is reported as “noticeable descent”. In addition, the apoptosis rate with 4T1 cells [1] stood at 37.4%. Besides, in series [3], the “stability in simulated gastric acid (pH 1.5) and intestinal (pH 6.8) conditions” value was 85%. In series [4], this molecule returned a CL of 37.5 mL/min/kg and a Vd of 17.11 ± 8.08 L/kg. For the same molecule, in series [4] (Sprague-Dawley, rat, serum, po), the AUC(0-inf) came to 8980 ng·h/mL, the AUC(0-t) came out at 8220 ± 330 ng·h/mL, the peak level (Cmax) was 2680 ng/mL and the Tmax worked out at 1.5 h. Besides, the half-life in series [4] (Sprague-Dawley, rat, serum, po) is 5.54 h.

A word on the AUC(0-inf): it is the area under the concentration-time curve extrapolated to infinity. In general, AUC(0-t) refers to exposure summed from dosing to a finite time, without extrapolation to infinity. A higher AUC(0-t) goes with high exposure. What is called Cmax is the maximum level reached in the sampled fluid or tissue. For orientation: Tmax means the time from dosing to the highest level. Broadly, the half-life is the time needed for the level to fall by half in the phase considered. A higher half-life goes with slow decline.
